# What was measured:
# Assay type in all cases: in vivo
# [1] = tested on: upland rice (Oryza sp., var. Tebonnet, RICE); test: Pre-emerge test, crop safety; conditions: rating scale 0-100, 14 days after application
# Outline: (§1)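 Visual ratings on a 0-100 scale (0 no damage, 100 all plants dead) were taken at 14 days after treatment. Rates of 15-1000 g ai/ha in acetone, 187 l/ha, were sprayed onto soil one day after planting (pre-emerge) or onto 2-3 leaf plants with 0.25% v/v surfactant (post-emerge).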
# [2] = tested on: field corn (Zea mays L., var. Dekalb 535, CORN); test: Pre-emerge test, crop safety; conditions: rating scale 0-100, 14 days after application
# Outline: as §1
# [3] = tested on: barnyardgrass (Echinochloa crus-galli, ECHCG); test: Pre-emerge test, greenhouse herbicide activity screening; conditions: rating scale 0-100, 14 days after application
# Outline: (§2)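 Compounds in acetone were track-sprayed at 15-1000 g ai/ha (187 l/ha) on sandy loam pots: pre-emerge one day after seeding, post-emerge at 2-3 leaf stage with 0.25% v/v non-ionic surfactant. Phytotoxicity was rated 14 days later on a 0 (no damage) to 100 (complete death) scale.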
# [4] = tested on: sicklepod (Cassia obtusifolia, CASOB); test: as above; conditions: rating scale 0-100, 14 days after application
# Outline: as §2
# [5] = tested on: johnsongrass (Sorghum halepense, SORHA); test: as above; conditions: rating scale 0-100, 14 days after application
# Outline: as §2
# [6] = tested on: green foxtail (Setaria viridis, SETVI); test: as above; conditions: rating scale 0-100, 14 days after application
# Outline: as §2
# [7] = tested on: velvetleaf (Abutilon theophrasti, ABUTH); test: as above; conditions: rating scale 0-100, 14 days after application
# Outline: as §2
# [8] = tested on: ivyleaf morningglory (Ipomoea hederacea, IPOHE); test: as above; conditions: rating scale 0-100, 14 days after application
# Outline: as §2
# [9] = tested on: lambsquarters (Chenopodium album, CHEAL); test: as above; conditions: rating scale 0-100, 14 days after application
# Outline: as §2
# [10] = tested on: common ragweed (Ambrosia artemisizfolia L., AMBEL); test: as above; conditions: rating scale 0-100, 14 days after application
# Outline: as §2
# [11] = tested on: large crabgrass (Digitaria sanguinalis, DIGSA); test: as above; conditions: rating scale 0-100, 14 days after application
# Outline: as §2
# [12] = tested on: redroot pigweed (Amaranthus retroflexus, AMARE); test: as above; conditions: rating scale 0-100, 14 days after application
# Outline: as §2
# [13] = tested on: upland rice (Oryza sp., var. Tebonnet, RICE); test: Post-emerge test, crop safety; conditions: rating scale 0-100 (0 no damage, 100 complete death), 14 days after application
# Outline: as §2
# [14] = tested on: field corn (Zea mays L., var. Dekalb 535, CORN); test: Post-emerge test, crop safety; conditions: rating scale 0-100 (0 no damage, 100 complete death), 14 days after application
# Outline: as §2
# [15] = tested on: barnyardgrass (Echinochloa crus-galli, ECHCG); test: Post-emerge test, greenhouse herbicide activity screening; conditions: rating scale 0-100 (0 no damage, 100 complete death), 14 days after application
# Outline: (§3)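 Compounds in acetone were track-sprayed at 187 l/ha, 15–1000 g ai/ha, onto sandy loam pots. Pre-emerge seeds were sown one day before spraying, with surface watering afterwards. Post-emerge plants were at the 2–3 leaf stage and sprayed with 0.25% v/v non-ionic surfactant. Injury was rated 0–100 at 14 days.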
# [16] = tested on: sicklepod (Cassia obtusifolia, CASOB); test: as above; conditions: rating scale 0-100 (0 no damage, 100 complete death), 14 days after application
# Outline: as §3
# [17] = tested on: green foxtail (Setaria viridis, SETVI); test: as above; conditions: rating scale 0-100 (0 no damage, 100 complete death), 14 days after application
# Outline: as §3
# [18] = tested on: velvetleaf (Abutilon theophrasti, ABUTH); test: as above; conditions: rating scale 0-100 (0 no damage, 100 complete death), 14 days after application
# Outline: as §3
# [19] = tested on: ivyleaf morningglory (Ipomoea hederacea, IPOHE); test: as above; conditions: rating scale 0-100 (0 no damage, 100 complete death), 14 days after application
# Outline: as §3
# [20] = tested on: lambsquarters (Chenopodium album, CHEAL); test: as above; conditions: rating scale 0-100 (0 no damage, 100 complete death), 14 days after application
# Outline: as §3
# [21] = tested on: common ragweed (Ambrosia artemisizfolia L., AMBEL); test: as above; conditions: rating scale 0-100 (0 no damage, 100 complete death), 14 days after application
# Outline: as §3
# [22] = tested on: redroot pigweed (Amaranthus retroflexus, AMARE); test: as above; conditions: rating scale 0-100 (0 no damage, 100 complete death), 14 days after application
# Outline: as §3
# [23] = tested on: large crabgrass (Digitaria sanguinalis, DIGSA); test: as above; conditions: rating scale 0-100 (0 no damage, 100 complete death), 14 days after application
# Outline: as §3
compound,measurement,setting,value
"CCCCOC(=O)C(Cl)Cc1c(OC)c(Cl)cc(F)c1-n1c(=O)cc(C(F)(F)F)n(C)c1=O (single isomer, unassigned) [14-9]","Pre-emerge phytotoxicity rating, crop damage RICE",[1]; 63 g ai/ha,0
same,"Pre-emerge phytotoxicity rating, crop damage RICE",[1]; 250 g ai/ha,5
same,"Pre-emerge phytotoxicity rating, crop damage CORN",[2]; 63 g ai/ha,0
same,"Pre-emerge phytotoxicity rating, crop damage CORN",[2]; 250 g ai/ha,75
same,"Pre-emerge herbicidal activity, phytotoxicity rating ECHCG",[3]; 63 g ai/ha,0
same,"Pre-emerge herbicidal activity, phytotoxicity rating ECHCG",[3]; 250 g ai/ha,70
same,"Pre-emerge herbicidal activity, phytotoxicity rating CASOB",[4]; 63 g ai/ha,0
same,"Pre-emerge herbicidal activity, phytotoxicity rating CASOB",[4]; 250 g ai/ha,0
same,"Pre-emerge herbicidal activity, phytotoxicity rating SORHA",[5]; 63 g ai/ha,0
same,"Pre-emerge herbicidal activity, phytotoxicity rating SORHA",[5]; 250 g ai/ha,30
same,"Pre-emerge herbicidal activity, phytotoxicity rating SETVI",[6]; 63 g ai/ha,0
same,"Pre-emerge herbicidal activity, phytotoxicity rating SETVI",[6]; 250 g ai/ha,20
same,"Pre-emerge herbicidal activity, phytotoxicity rating ABUTH",[7]; 63 g ai/ha,0
same,"Pre-emerge herbicidal activity, phytotoxicity rating ABUTH",[7]; 250 g ai/ha,90
same,"Pre-emerge herbicidal activity, phytotoxicity rating IPOHE",[8]; 63 g ai/ha,0
same,"Pre-emerge herbicidal activity, phytotoxicity rating IPOHE",[8]; 250 g ai/ha,0
same,"Pre-emerge herbicidal activity, phytotoxicity rating CHEAL",[9]; 63 g ai/ha,60
same,"Pre-emerge herbicidal activity, phytotoxicity rating CHEAL",[9]; 250 g ai/ha,90
same,"Pre-emerge herbicidal activity, phytotoxicity rating AMBEL",[10]; 63 g ai/ha,0
same,"Pre-emerge herbicidal activity, phytotoxicity rating AMBEL",[10]; 250 g ai/ha,0
same,"Pre-emerge herbicidal activity, phytotoxicity rating DIGSA",[11]; 63 g ai/ha,90
same,"Pre-emerge herbicidal activity, phytotoxicity rating DIGSA",[11]; 250 g ai/ha,100
same,"Pre-emerge herbicidal activity, phytotoxicity rating AMARE",[12]; 63 g ai/ha,80
same,"Pre-emerge herbicidal activity, phytotoxicity rating AMARE",[12]; 250 g ai/ha,100
same,Post-emerge phytotoxicity rating RICE (crop damage),[13]; Rate 63 g ai/ha,5
same,Post-emerge phytotoxicity rating RICE (crop damage),[13]; Rate 250 g ai/ha,20
same,Post-emerge phytotoxicity rating CORN (crop damage),[14]; Rate 63 g ai/ha,70
same,Post-emerge phytotoxicity rating CORN (crop damage),[14]; Rate 250 g ai/ha,99
same,"Post-emerge Herbicidal Activity, phytotoxicity rating ECHCG",[15]; Rate 63 g ai/ha,98
same,"Post-emerge Herbicidal Activity, phytotoxicity rating ECHCG",[15]; Rate 250 g ai/ha,100
same,"Post-emerge Herbicidal Activity, phytotoxicity rating CASOB",[16]; Rate 63 g ai/ha,0
same,"Post-emerge Herbicidal Activity, phytotoxicity rating CASOB",[16]; Rate 250 g ai/ha,0
same,"Post-emerge Herbicidal Activity, phytotoxicity rating SETVI",[17]; Rate 63 g ai/ha,30
same,"Post-emerge Herbicidal Activity, phytotoxicity rating SETVI",[17]; Rate 250 g ai/ha,60
same,"Post-emerge Herbicidal Activity, phytotoxicity rating ABUTH",[18]; Rate 63 g ai/ha,70
same,"Post-emerge Herbicidal Activity, phytotoxicity rating ABUTH",[18]; Rate 250 g ai/ha,100
same,"Post-emerge Herbicidal Activity, phytotoxicity rating IPOHE",[19]; Rate 63 g ai/ha,0
same,"Post-emerge Herbicidal Activity, phytotoxicity rating IPOHE",[19]; Rate 250 g ai/ha,80
same,"Post-emerge Herbicidal Activity, phytotoxicity rating CHEAL",[20]; Rate 63 g ai/ha,60
same,"Post-emerge Herbicidal Activity, phytotoxicity rating CHEAL",[20]; Rate 250 g ai/ha,99
same,"Post-emerge Herbicidal Activity, phytotoxicity rating AMBEL",[21]; Rate 63 g ai/ha,10
same,"Post-emerge Herbicidal Activity, phytotoxicity rating AMBEL",[21]; Rate 250 g ai/ha,70
same,"Post-emerge Herbicidal Activity, phytotoxicity rating AMARE",[22]; Rate 63 g ai/ha,90
same,"Post-emerge Herbicidal Activity, phytotoxicity rating AMARE",[22]; Rate 250 g ai/ha,99
same,"Post-emerge Herbicidal Activity, phytotoxicity rating DIGSA",[23]; Rate 63 g ai/ha,75
same,"Post-emerge Herbicidal Activity, phytotoxicity rating DIGSA",[23]; Rate 250 g ai/ha,75
